Format in all cases: in vivo
The test system of assay [1] is Setaria faberi (SETFA). As to the kind of experiment: Post-emergence herbicidal activity, glasshouse pot test. The settings on record: Setaria faberi, rate 125 g/ha, evaluated after 14 or 15 days, read-out: Post-emergence activity, SETFA (100=total damage to plant; 0=no damage to plant). As to the method:
(§1) Monocotyledonous and dicotyledonous test plants were sown in sterilised standard soil in pots. After cultivation for one day (pre-emergence) or after 10 days cultivation (post-emergence) under controlled conditions in a glasshouse, the plants were sprayed with an aqueous spray solution derived from the formulation of the technical active ingredient in 0.6 ml acetone and 45 ml formulation solution containing 10.6% Emulsogen EL (Registry number 61791-12-6), 42.2% N-methylpyrrolidone, 42.2% dipropylene glycol monomethyl ether (Registry number 34590-94-8) and 0.2% X-77 (Registry number 11097-66-8). The test plants were then grown in a greenhouse under optimum conditions until, 14 or 15 days later for post-emergence and 20 days for pre-emergence, the test was evaluated (100=total damage to plant; 0=no damage to plant). Alopecurus myosuroides (ALOMY), Avena fatua (AVEFA), Lolium perenne (LOLPE), Setaria faberi (SETFA), Digitaria sanguinalis (DIGSA), Echinochloa crus-galli (ECHCG) Post-Emergence Activity

In assay [2] the test system is Digitaria sanguinalis (DIGSA). The assay is described as above. The conditions noted are these: Digitaria sanguinalis, rate 125 g/ha, evaluated after 14 or 15 days, read-out: Post-emergence activity, DIGSA (100=total damage to plant; 0=no damage to plant). As to the method:
as §1

Assay [3] concerns Lolium perenne (LOLPE). The description is as above. The conditions noted are these: Lolium perenne, rate 125 g/ha, evaluated after 14 or 15 days, read-out: Post-emergence activity, LOLPE (100=total damage to plant; 0=no damage to plant). As to the method: as §1
For assay [4], the system named is Avena fatua (AVEFA). Described as above. The settings on record: Avena fatua, rate 125 g/ha, evaluated after 14 or 15 days, read-out: Post-emergence activity, AVEFA (100=total damage to plant; 0=no damage to plant). As to the method:
as §1

Assay [5] concerns Alopecurus myosuroides (ALOMY). The description is as above. The settings on record: Alopecurus myosuroides, rate 125 g/ha, evaluated after 14 or 15 days, read-out: Post-emergence activity, ALOMY (100=total damage to plant; 0=no damage to plant). As to the method:
as §1

Assay [6] concerns Setaria faberi (SETFA). As to the kind of experiment: Pre-emergence herbicidal activity, glasshouse pot test. The settings on record: Setaria faberi, 480 h, rate 500 g/ha, evaluated after 20 days, read-out: Pre-emergence activity, SETFA (100=total damage to plant; 0=no damage to plant). As to the method: as §1, with “Pre-Emergence” for “Post-Emergence”
The subject of assay [7] is Digitaria sanguinalis (DIGSA). Described as above. The conditions noted are these: Digitaria sanguinalis, 480 h, rate 500 g/ha, evaluated after 20 days, read-out: Pre-emergence activity, DIGSA (100=total damage to plant; 0=no damage to plant). As to the method: as §1, with “Pre-Emergence” for “Post-Emergence”
The subject of assay [8] is Echinochloa crus-galli (ECHCG). The assay is described as above. The settings on record: Echinochloa crus-galli, 480 h, rate 500 g/ha, evaluated after 20 days, read-out: Pre-emergence activity, ECHCG (100=total damage to plant; 0=no damage to plant). As to the method:
as §1, with “Pre-Emergence” for “Post-Emergence”

Assay [9] has as its system Lolium perenne (LOLPE). Described as above. The conditions noted are these: Lolium perenne, 480 h, rate 500 g/ha, evaluated after 20 days, read-out: Pre-emergence activity, LOLPE (100=total damage to plant; 0=no damage to plant). As to the method: as §1, with “Pre-Emergence” for “Post-Emergence”
In assay [10] the test system is Avena fatua (AVEFA). The description is as above. The conditions noted are these: Avena fatua, 480 h, rate 500 g/ha, evaluated after 20 days, read-out: Pre-emergence activity, AVEFA (100=total damage to plant; 0=no damage to plant). As to the method: as §1, with “Pre-Emergence” for “Post-Emergence”
Assay [11] relates to Alopecurus myosuroides (ALOMY). The assay is described as above. The conditions noted are these: Alopecurus myosuroides, 480 h, rate 500 g/ha, evaluated after 20 days, read-out: Pre-emergence activity, ALOMY (100=total damage to plant; 0=no damage to plant). As to the method:
as §1, with “Pre-Emergence” for “Post-Emergence”

Assay [12] relates to Echinochloa crus-galli (ECHCG). As to the kind of experiment: Post-emergence herbicidal activity, glasshouse pot test. The settings on record: Echinochloa crus-galli, rate 125 g/ha, evaluated after 14 or 15 days, read-out: Post-emergence activity, ECHCG (100=total damage to plant; 0=no damage to plant). As to the method:
as §1

The structures appear in SMILES notation.

The values below come from patent publication US8084649B2, “Herbicides” (Syngenta Crop Protection, inc., priority 2007, dated 2011).

`CCCCCCC(=O)OC1=C(c2c(CC)cc(C)cc2CC)C(=O)CC2(CCOCC2)C1` [Compound P10]: the pest or weed control at 125 g/ha in assay [1] came out at 70%; in assay [2], 80%; in assay [3], 90%; in assay [4], 100%; in assay [5] it was 100%. In addition, the pest or weed control at 500 g/ha in assay [6], in assay [7], in assay [8], in assay [9], in assay [10] and in assay [11] was 100% throughout.

On to `CCCOC1=C(c2c(CC)cc(C)cc2CC)C(=O)CC2(CCOCC2)C1` [Compound P41], for which the pest or weed control at 125 g/ha in assay [1] is 0%; in [2], 50%; in assay [3], 0%; in assay [4], 10%; in assay [5] it was 10%. Also, the pest or weed control at 500 g/ha stood at 10% in [6]; 90% in assay [7]; 40% in assay [8]; 0% in assay [9]; 10% in [10]; 70% in [11].

As to `CCc1cc(C)cc(CC)c1C1=C(OC(=O)CC(C)(C)C)CC2(CCOCC2)CC1=O` [Compound P6], the pest or weed control at 125 g/ha in assay [1] was determined as 0%; in assay [2], 30%; in assay [3], 10%; in assay [4], 80%; in assay [5] it was 60%. Besides, the pest or weed control at 500 g/ha in [6] came to 70%; in assay [7], 100%; in [8], 70%; in assay [9], 100%; in assay [10] it was 90%; in assay [11], 100%.

With `CCOCOC1=C(c2c(CC)cc(C)cc2CC)C(=O)CC2(CCOCC2)C1` [Compound P35], the pest or weed control at 125 g/ha was 50% in assay [1]; 50% in assay [2]; 100% in assay [12]; 90% in assay [3]; 100% in [4]; 100% in assay [5]. The pest or weed control at 500 g/ha in assay [6], in assay [9], in [10] and in [11] was 100% in each case.

Regarding `CCCCCCCCCC(=O)OC1=C(c2c(CC)cc(C)cc2CC)C(=O)CC2(CCOCC2)C1` [Compound P43], the pest or weed control at 125 g/ha in assay [1] worked out at 70%; in [2], 70%; in [12] it was 70%; in assay [3] it was 80%; in assay [4] it was 100%; in assay [5], 100%. Further, the pest or weed control at 500 g/ha in assay [8], in assay [9], in assay [10] and in [11] was 100% throughout.

Take `C#CCOC1=C(c2c(CC)cc(C)cc2CC)C(=O)CC2(CCOCC2)C1` [Compound P31, 9-(2,6-diethyl-4-methylphenyl)-10-prop-2-ynyloxy-3-oxaspiro[5.5]undec-9-en-8-one]: the pest or weed control at 125 g/ha in assay [1] is 60%; in assay [2] it was 20%; in assay [3], 50%; in assay [4] it was 70%; in [5], 70%. The pest or weed control at 500 g/ha in [6] came to 90%; in assay [7] it was 100%; in assay [8] it was 100%; in assay [9] it was 100%; in [10], 100%; in assay [11] it was 100%.

With `CCc1cc(C)cc(CC)c1C1=C(OS(=O)(=O)CC)CC2(CCOCC2)CC1=O` [Compound P28], the pest or weed control at 125 g/ha in [1] worked out at 0%; in [2], 10%; in assay [3], 0%; in [4], 10%; in assay [5] it was 0%. The pest or weed control at 500 g/ha in [6] was 70%; in assay [7], 70%; in [8], 10%; in assay [9] it was 80%; in assay [10], 30%; in assay [11], 80%.

`CCC(=O)OC1=C(c2c(CC)cc(C)cc2CC)C(=O)CC2(CCOCC2)C1` [Compound P2]: the pest or weed control at 125 g/ha stood at 70% in assay [1]; 100% in assay [2]; 80% in [3]; 90% in [4]; 80% in assay [5]. Moreover, the pest or weed control at 500 g/ha in assay [6], in assay [7], in assay [8], in assay [9], in [10] and in assay [11] was 100% each time.

Take `CCCCCCCCCCCCCC(=O)OC1=C(c2c(CC)cc(C)cc2CC)C(=O)CC2(CCOCC2)C1` [Compound P42]: the pest or weed control at 125 g/ha came to 50% in [1]; 30% in [2]; 30% in [12]; 50% in assay [3]; 40% in assay [4]; 60% in [5]. Further, the pest or weed control at 500 g/ha in assay [8] amounted to 100%; in assay [9], 100%; in assay [10], 90%; in assay [11], 100%.

In the case of `CCCC(CC)C(=O)OC1=C(c2c(CC)cc(C)cc2CC)C(=O)CC2(CCOCC2)C1` (centres unmarked) [Compound P15], the pest or weed control at 125 g/ha in assay [1] amounted to 40%; in assay [2], 70%; in [3], 0%; in assay [4] it was 70%; in assay [5], 10%. Also, the pest or weed control at 500 g/ha in [6] was 70%; in [7], 90%; in [8] it was 60%; in assay [9], 100%; in [10], 90%; in [11], 0%.
